# Test results published in patent US20080261902A1, “Pharmaceutical composition containing polydatin and its application” (Shenzhen Neptunus Pharmaceutical Co., Ltd., priority 2005, published 2008).
# Tested on: dogs in hemorrhagic shock
# Experiment: Treatment effect of polydatin drug compositions to dogs in hemorrhagic shock (Embodiment 20)
# Format: in vivo, Beagle dogs
structure (smiles),measurement,setting,value
NCCc1ccc(O)c(O)c1 [dopamine],"average survival time (hour, x ± s)","3.0 mg/kg, continuous intravenous infusion 120 min, long-term survival calculated with 168 hours",103.00 ± 89.01 h
same,survival rate,"24 hours, 3.0 mg/kg",3 number/5
same,survival rate,"48 hours, 3.0 mg/kg",3 number/5
same,survival rate,"72 hours, 3.0 mg/kg",3 number/5
same,pulse pressure difference (FIG. 2),"dogs in hemorrhagic shock, during and after infusion",increasing range is obviously lower than the polydatin groups
